Assay results from patent US20220296669A1, “NOVEL COMPOSITIONS AND USES THEREOF” (priority 2019, published 2022).

Assays:
[1] = tested on: collagen I scaffolds; assay: 131-iodine coating efficiency (binding) assay on collagen I scaffolds with/without PLL precoating; conditions: with PLL as intermediate layer vs without PLL / controls, 1 mm thin and 2 mm thick scaffolds
Protocol: Materials—MDS Collagen was obtained from MedSkin Solutions Dr. Suwelack A G (MDS). 1 mm thickness refers to thin, and 2 mm thickness refers to thick collagen scaffold, respectively. c-poly-L-lysine hydrobromide (PLL, 30 000-150 000 g/mol) was purchased from Sigma-Aldrich, St. Louis, USA. Collagen VI and its derived peptides were prepared as described in [18]. LL-37 was a kind gift of Dr. Artur Schmidtchen, University of Lund. NAT26, HKH20, GGL27 were kind gifts of Dr. Inga-Maria Frick, University of Lund. α defensins 3-6 and β defensins 1-4 were kind gifts of Dr. Arne Egesten, University of Lund. Proteins were radiolabeled with 131-iodine according to standard protocols prior to coating assays on collagen scaffold surfaces.
Biomaterial surface coating with PLL—collagen scaffold discs with a diameter of 5 mm and thickness of 2 mm (thick scaffold) and 1 mm (thin scaffold), respectively, were punched out from a larger sheet (approximately 10 cm×10 cm). Prior to collagen coating, 150 μl poly-L-lysine hydrobromide solution (0.2 mg/ml) were applied on the collagen scaffold discs by incubation at 60° C. for 2 h. Afterwards the discs were washed twice in distilled water to remove unbound PLL, air-dried and stored at room temperature.
(§1) Biomaterial surface coating with bioactive collagen VI molecules—collagen scaffold discs, after prior treatment with PLL, were put into 24-well cell culture plates (TPP, Trasadingen, Switzerland). They were coated by incubation with 150 μl bovine collagen VI microfibrils (concentration 15 μM), or with 150 μl collagen type VI peptides (concentration 3 μM), or with 150 ml LL-37, NAT26, HKH20, GGL27, α defensins 3-6 and β defensins 1-4 at 4° C. for 2 h, followed by rinsing with distilled water and air-drying. The coating efficiencies of the different biomolecules were assessed by determining the ratio between bound and free 131-iodine radioactivity associated with collagen scaffolds by determining radioactivity as cpm values in a γ-counter.

[2] = 131-iodine coating efficiency (binding) assay on titanium surfaces with/without PLL precoating; conditions: with PLL as intermediate layer vs without PLL / controls
Protocol: Materials—Titanium discs with a diameter and thickness of 5 mm and 0.25 mm, respectively, and with a maximum average roughness (Ra) of 0.8 μm, were punched out from a commercially available titanium foil (Alfa Aesar GmbH & Co. KG, Karlsruhe, Germany). ε-poly-L-lysine hydrobromide (PLL, 30,000-150,000 g/mol) was purchased from Sigma-Aldrich, St. Louis, USA. Collagen VI and its derived peptides were prepared as described in [18]. LL-37 was a kind gift of Dr. Artur Schmidtchen, University of Lund. NAT26, HKH20, GGL27 were kind gifts of Dr. Inga-Maria Frick, University of Lund. α defensins 3-6 and β defensins 1-4 were kind gifts of Dr. Arne Egesten, University of Lund. Proteins were radiolabeled with 131-iodine according to standard protocols prior to coating assays on collagen scaffold surfaces.
Biomaterial surface coating with PLL—Titanium discs were degreased with chloroform and 97% ethanol, followed by rinsing with distilled water, and air-drying at room temperature. Subsequently, prior to collagen coating, 150 μl poly-L-lysine hydrobromide (70,000-150,000 g/mol, Sigma-Aldrich, St. Louis, USA, 0.2 mg/ml) were applied on desired titanium discs by incubation at 60° C. for 2 hours. Afterwards, the titanium was washed twice in distilled water to remove unbound PLL, air-dried and stored at room temperature.
as §1, with “molecules—Titanium” for “molecules—collagen scaffold”, “μl” for “μl bovine collagen VI microfibrils (concentration 15 μM), or with 150 μl”, “μM),” for “μM), or with 150 ml LL-37, NAT26, HKH20, GGL27, α defensins 3-6 and β defensins 1-4”, “hours,” for “h,”, “titanium discs” for “collagen scaffolds”

[3] = tested on: Human Dermal Fibroblasts, adult (HDFa); assay: Fibroblast adherence on coated surfaces, scanning electron microscopy; format: cell-based; conditions: with PLL as intermediate layer vs without PLL and other parts of collagen VI, measured in cells/mm^2; for fibroblast adherence on collagen I scaffolds: FIG. 11; for fibroblast adherence on titanium surfaces: titanium surface, FIG. 7
Protocol: (§2) Collagen I scaffolds and titanium surfaces were coated with collagen VI microfibrils, each of collagen VI alpha 1-3 chains and the bioactive collagen VI peptides GVR28, FYL25, FFL25, VTT30, and SFV33 as described in Examples 1 and 2 above.
(§3) Adherence of fibroblasts or keratinocytes was assessed by scanning electron microscopy.
(§4) Cells and culture conditions—Keratinocytes (Human Epidermal Keratinocytes, adult (HEKa), C-005-5C, Gibco) and fibroblasts (Human Dermal Fibroblasts, adult (HDFa), C0135C, Gibco) were purchased from Thermo Fisher Scientific, Waltham, USA. Cryopreserved cells were thawed according to the manufacturer's protocol and seeded on three 75 mL tissue culture flasks, each containing 15 mL of keratinocyte basal medium (KBM; KBM Gold, Lonza Group AG, Basel, Switzerland). The medium was supplemented with transferrin, recombinant human epidermal growth factor (rhEGF), bovine pituitary extract (BPE), antibiotics (Gentamycin: GA-1000), insulin, epinephrine and hydrocortisone (PeproTech, New Jersey, USA). For fibroblasts, complete growth medium consisting of Dulbecco's modified eagle medium (D-MEM) with 100 mM sodium pyruvate (PAA Laboratories, Pasching, Austria), supplemented with 10% fetal bovine serum (FBS) (PAA Laboratories, Pasching, Austria) and 2 mM L-glutamine (Invitrogen, Carlsbad, USA), was used. Medium was changed every day and substituted with additional rhEGF at a final dilution of 1:1000. The cells were incubated for seven days until they reached confluency. The cells were harvested by trypsinization (TrypLE™ Select (1x), Life Technologies Corporation, Carlsbad, USA) and transferred into freezing medium, containing 1% BSA (Sigma Aldrich, St. Louis, USA) and 10% DMSO (Sigma-Aldrich, St. Louis, USA). 1 mL aliquots of the cell suspension were transferred into cryotubes. The cryotubes were transferred to the freezer at −80° C. for 24 hours and then finally stored in liquid nitrogen until further use.
(§5) Cell attachment—Cells were gently thawed and counted in a hemocytometer using trypan blue (Fisher Scientific, Waltham, USA) to estimate the number of live/dead cells. They were finally diluted in appropriate media to final cell concentrations of 16700 viable cells/mL. 300 μL cell solution were added on top of punched out titanium or collagen I scaffold samples, followed by incubation at 37° C. for 1 hour. Growth medium was removed and the cells were gently washed twice with PBS. The cells were then fixed by the addition of 4% formaldehyde in PBS, followed by incubation at 4° C. for 20 minutes. Finally, cells were rinsed three times in PBS and stored in 3 mL PBS until further evaluation by scanning electron microscopy.

[4] = tested on: Human Epidermal Keratinocytes, adult (HEKa); assay: Keratinocyte adherence on coated surfaces, scanning electron microscopy; format: cell-based; conditions: with PLL as intermediate layer vs without PLL and other parts of collagen VI; for keratinocyte adherence on collagen I scaffolds: FIG. 12; for keratinocyte adherence on titanium surfaces: titanium surface, FIG. 8
Protocol: as §2, §3, §4, §5

[5] = tested on: Pseudomonas aeruginosa; assay: Gram-negative bacterial killing efficiency on coated surfaces, scanning electron microscopy; format: cell-based; conditions: with PLL as intermediate layer vs without PLL and other parts of collagen VI; for killing of Pseudomonas aeruginosa on collagen I scaffolds: collagen I scaffolds 1 mm / 2 mm, FIG. 9; for killing of Pseudomonas aeruginosa on titanium surfaces: titanium surface, FIG. 5
Protocol: (§6) Collagen I scaffolds and titanium surfaces were coated with collagen VI microfibrils, each of collagen VI alpha 1-3 chains and the bioactive collagen VI peptides GVR28, FYL25, FFL25, VTT30, and SFV33 as described in Examples 1 and 2 above, respectively.
(§7) Killing efficiency of the gram-negative Pseudomonas aeruginosa bacteria and the gram-positive Staphylococcus aureus were assessed by scanning electron microscopy. For killing efficiency and scanning electron microscopy experiments, titanium scaffold discs with a size of 5 mm and a thickness of 0.25 mm, and collagen I scaffold discs with a size of 5 mm and a thickness of 1 mm (thin scaffold) or 2 mm (thick scaffold), respectively, were punched out and coated with PLL as described in Examples 1 and 2 above. They were subsequently incubated with 500 μL of bacterial suspension (5×10^8 cfu/ml bacteria) and incubated for 2 hours at 37° C. in a humid atmosphere containing 5% CO2.
(§8) The discs were then prepared for scanning electron microscopy. In short, samples were incubated overnight at 4° C. with fixation buffer (0.15M sodium cacodylate, pH 7.4, containing 2.5% v/v glutaraldehyde) and subsequently washed with cacodylate buffer (0.15M sodium cacodylate, pH 7.4), followed by a standard dehydration series with ethanol-water mixtures. Specimens were then dried in liquid CO2, using ethanol as an intermediate solvent. Samples were mounted on aluminium discs and coated with 20 nm gold/palladium. Finally, samples were investigated with an XL 30 FEG scanning electron microscope and images were processed by AnalySIS ITEM software. Viable and non-viable bacteria were directly identified and quantified under in the scanning electron microscope due to their structural differences.

[6] = tested on: Staphylococcus aureus; assay: Gram-positive bacterial killing efficiency on coated surfaces, scanning electron microscopy; format: cell-based; conditions: with PLL as intermediate layer vs without PLL and other parts of collagen VI; for killing of Staphylococcus aureus on collagen I scaffolds: collagen I scaffolds 1 mm / 2 mm, FIG. 10; for killing of Staphylococcus aureus on titanium surfaces: titanium surface, FIG. 6
Protocol: as §6, §7, §8

[7] = listed as collagen type VI alpha-3 chain

Row | Substance | coating efficiency (binding) on collagen I scaffolds [1] | coating efficiency (binding) on titanium surfaces [2] | fibroblast adherence on collagen I scaffolds [3] | fibroblast adherence on titanium surfaces [3] | keratinocyte adherence on collagen I scaffolds [4] | keratinocyte adherence on titanium surfaces [4] | killing of Pseudomonas aeruginosa on collagen I scaffolds [5] | killing of Pseudomonas aeruginosa on titanium surfaces [5] | killing of Staphylococcus aureus on collagen I scaffolds [6] | killing of Staphylococcus aureus on titanium surfaces [6] | coating efficiency (binding) on collagen I scaffolds [1, 7] | coating efficiency (binding) on titanium surfaces [2, 7]
1 | FYLKTYRSQAPVLDAIRRLRLRGGS (FYL25 peptide) | superior coating | superior coating |  |  |  |  |  |  |  |  |  | 
2 | FFLKDFSTKRQIIDAINKVVYKGGR (FFL25 peptide) | superior coating | superior coating | considerably enhanced | considerably enhanced | considerably enhanced | considerably enhanced |  |  |  |  |  | 
3 | VTTEIRFADSKRKSVLLDKIKNLQVALTSK (VTT30 peptide) | superior coating | superior coating | considerably enhanced | considerably enhanced | considerably enhanced | considerably enhanced |  |  |  |  |  | 
4 | SFVARNTFKRVRNGFLMRKVAVFFSNTPTRASP (SFV33 peptide) | superior coating | superior coating |  |  |  |  | considerably enhanced | considerably enhanced | considerably enhanced | considerably enhanced |  | 
5 | collagen VI alpha-3 chain: alpha-3 polypeptide chain of collagen type VI (UniProt P12111) | considerably enhanced | considerably enhanced | considerably enhanced | considerably enhanced | considerably enhanced | considerably enhanced | considerably enhanced | considerably enhanced | considerably enhanced | considerably enhanced | superior coating | superior coating
6 | GVRPDGFAHIRDFVSRIVRRLNIGPSKV (GVR28 peptide) | superior coating | superior coating | considerably enhanced | considerably enhanced | considerably enhanced | considerably enhanced |  |  |  |  |  | 
